In experiment [1] the test system is UEA-1 binding sites on Caco-2 cell membrane preparations. Description: Single tier competition assay: inhibition of biotinylated UEA-1 binding, compound and biotinylated UEA-1 incubated together. Details: species or system human. Conditions: for IC 50 (ug/ml) 1st tier / IC50: Table 8, galloyl constructs; for IC50: read-out: IC 50 (uM) 1st tier (converted); for Avg % Inhibtion: Single Tier Assay, library MSI 26. Summed up: (§1)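 Plates coated with Caco-2 membrane preparation (10 μg/ml, carbonate buffer pH 9.6) and BSA-blocked. Single tier: compound and biotinylated UEA-1 incubated together overnight. Two tier: compound incubated overnight with membranes first, biotinylated UEA-1 added next. Bound UEA-1 detected by streptavidin-HRP/OPD, OD490.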

The test system is the same in experiment [2]. Description: Two tier competition assay: compound incubated alone with membranes, biotinylated UEA-1 added in next step. Further details: species or system human. Conditions: for IC 50 (ug/ml) 2nd tier / IC50: Table 8, galloyl constructs; for IC50: read-out: IC 50 (uM) 2nd tier; for Avg % Inhibition: Two Tier Assay, library MSI 26. Summed up:
as §1

Values after ≈ are worked out from the molar mass of the structure shown. Non-standard residues stand in square brackets, D forms with d. Residues, ends and D or L forms follow the SMILES beside them. *: point of attachment. Galloyl = O=C(c1cc(O)c(O)c(O)c1)*; Orn = NCCC[CH](N)C(=O)O; Dab = NCC[CH](N)C(=O)O; Dap = NC[C@H](N)C(=O)O

The values below come from patent publication US7166296B2, “Pharmaceutical formulations and ligands for use therein; mimetics for UEA-1” (Sarlan, Ltd., priority 2001, dated 2007).

`NC(=O)C(Cc1ccc(NC(=O)c2cc(O)c(O)c(O)c2)cc1)NC(=O)C(Cc1ccc(NC(=O)c2cc(O)c(O)c(O)c2)cc1)NC(=O)c1cc(O)c(O)c(O)c1` (stereo not drawn) [MSI 34 #12]: in experiment [1], the “IC 50 (ug/ml) 1st tier” value is 6 µg/mL (≈ 7.52 µM) and the IC50 is 8 µM. Further, in experiment [2], the “IC 50 (ug/ml) 2nd tier” value was found to be 4 µg/mL (≈ 5.01 µM) and the IC50 came to 5 µM.
For `CC(=O)NC(CNC(=O)c1cc(O)c(O)c(O)c1)C(=O)NC(CNC(=O)c1cc(O)c(O)c(O)c1)C(=O)NC(CNC(=O)c1cc(O)c(O)c(O)c1)C(N)=O` (stereo not drawn) [MSI 34 #13], in that order: 1st tier = 22nd tier = 2 ug/ml, 3 µM, 1st tier = 22nd tier = 2 ug/ml and 2 µM.
Consider `CC(=O)NC(CCNC(=O)c1cc(O)c(O)c(O)c1)C(=O)NC(CCNC(=O)c1cc(O)c(O)c(O)c1)C(=O)NC(CCNC(=O)c1cc(O)c(O)c(O)c1)C(N)=O` (stereo not drawn) [MSI 34 #14], for which, in experiment [1], the “IC 50 (ug/ml) 1st tier” value came out at 2 µg/mL (≈ 2.45 µM) and the IC50 is 2 µM. In experiment [2], the “IC 50 (ug/ml) 2nd tier” value was found to be 1 µg/mL (≈ 1.23 µM) and the IC50 was 1 µM.
For `CC(=O)NC(CCCNC(=O)c1cc(O)c(O)c(O)c1)C(=O)NC(CCCNC(=O)c1cc(O)c(O)c(O)c1)C(=O)NC(CCCNC(=O)c1cc(O)c(O)c(O)c1)C(N)=O` (stereo not drawn) [MSI 34 #15], in that order: 8 µg/mL (≈ 9.33 µM), 9 µM, 2 µg/mL (≈ 2.33 µM) and 2 µM.
For `CC(=O)NC(Cc1ccc(NC(=O)c2cc(O)c(O)c(O)c2)cc1)C(=O)NC(Cc1ccc(NC(=O)c2cc(O)c(O)c(O)c2)cc1)C(=O)NC(Cc1ccc(NC(=O)c2cc(O)c(O)c(O)c2)cc1)C(N)=O` (stereo not drawn) [MSI 34 #16], in experiment [1], the “IC 50 (ug/ml) 1st tier” value stood at 3 µg/mL (≈ 2.99 µM) and the IC50 was 3 µM. Also, in experiment [2], the “IC 50 (ug/ml) 2nd tier” value turned out to be 6 µg/mL (≈ 5.99 µM) and the IC50 is 6 µM.
For `NC(=O)C(CNC(=O)c1cc(O)c(O)c(O)c1)NC(=O)C(CNC(=O)c1cc(O)c(O)c(O)c1)NC(=O)C(CNC(=O)c1cc(O)c(O)c(O)c1)NC(=O)c1cc(O)c(O)c(O)c1` (stereo not drawn) [MSI 34 #17], in that order: 1 µg/mL (≈ 1.13 µM), 1 µM, 0.7 µg/mL (≈ 0.792 µM) and 0.8 µM.
For `NC(=O)C(CCNC(=O)c1cc(O)c(O)c(O)c1)NC(=O)C(CCNC(=O)c1cc(O)c(O)c(O)c1)NC(=O)C(CCNC(=O)c1cc(O)c(O)c(O)c1)NC(=O)c1cc(O)c(O)c(O)c1` (stereo not drawn) [MSI 34 #18], in that order: 3 µg/mL (≈ 3.24 µM), 3 µM, 0.9 µg/mL (≈ 0.972 µM) and 1 µM.
For `NC(=O)C(CCCNC(=O)c1cc(O)c(O)c(O)c1)NC(=O)C(CCCNC(=O)c1cc(O)c(O)c(O)c1)NC(=O)C(CCCNC(=O)c1cc(O)c(O)c(O)c1)NC(=O)c1cc(O)c(O)c(O)c1` (stereo not drawn) [MSI 34 #19], in that order: 11 µg/mL (≈ 11.4 µM), 11 µM, 1 µg/mL (≈ 1.03 µM) and 1 µM.
With `NC(=O)C(Cc1ccc(NC(=O)c2cc(O)c(O)c(O)c2)cc1)NC(=O)C(Cc1ccc(NC(=O)c2cc(O)c(O)c(O)c2)cc1)NC(=O)C(Cc1ccc(NC(=O)c2cc(O)c(O)c(O)c2)cc1)NC(=O)c1cc(O)c(O)c(O)c1` (stereo not drawn) [MSI 34 #20], in experiment [1], the “IC 50 (ug/ml) 1st tier” value is 2 µg/mL (≈ 1.8 µM) and the IC50 is 2 µM. For the same compound, in experiment [2], the “IC 50 (ug/ml) 2nd tier” value turned out to be 6 µg/mL (≈ 5.4 µM) and the IC50 was determined as 5 µM.
For `CC(=O)N[C@@H](CNC(=O)c1cc(O)c(O)c(O)c1)C(=O)N[C@@H](CNC(=O)c1cc(O)c(O)c(O)c1)C(=O)N[C@@H](CNC(=O)c1cc(O)c(O)c(O)c1)C(=O)N[C@@H](CNC(=O)c1cc(O)c(O)c(O)c1)C(N)=O` [MSI 34 #21] (Ac-[Dap](Galloyl)[Dap](Galloyl)[Dap](Galloyl)[Dap](Galloyl)-NH2), in that order: 2 µg/mL (≈ 1.98 µM), 2 µM, 1 µg/mL (≈ 0.988 µM) and 1 µM.
Consider `CC(=O)NC(CCNC(=O)c1cc(O)c(O)c(O)c1)C(=O)NC(CCNC(=O)c1cc(O)c(O)c(O)c1)C(=O)NC(CCNC(=O)c1cc(O)c(O)c(O)c1)C(=O)NC(CCNC(=O)c1cc(O)c(O)c(O)c1)C(N)=O` (stereo not drawn) [MSI 34 #22] (Ac-[Dab](Galloyl)[Dab](Galloyl)[Dab](Galloyl)[Dab](Galloyl)-NH2; configuration not given here), for which, in experiment [1], the “IC 50 (ug/ml) 1st tier” value was 3 µg/mL (≈ 2.81 µM) and the IC50 is 3 µM. For the same compound, in experiment [2], the “IC 50 (ug/ml) 2nd tier” value came out at 1 µg/mL (≈ 0.936 µM) and the IC50 was 1 µM.
With `CC(=O)NC(CCCNC(=O)c1cc(O)c(O)c(O)c1)C(=O)NC(CCCNC(=O)c1cc(O)c(O)c(O)c1)C(=O)NC(CCCNC(=O)c1cc(O)c(O)c(O)c1)C(=O)NC(CCCNC(=O)c1cc(O)c(O)c(O)c1)C(N)=O` (stereo not drawn) [MSI 34 #23] (Ac-[Orn](Galloyl)[Orn](Galloyl)[Orn](Galloyl)[Orn](Galloyl)-NH2; configuration not given here), in experiment [1], the “IC 50 (ug/ml) 1st tier” value was determined as 6 µg/mL (≈ 5.34 µM) and the IC50 is 5 µM. Besides, in experiment [2], the “IC 50 (ug/ml) 2nd tier” value worked out at 1 µg/mL (≈ 0.89 µM) and the IC50 is 1 µM.
For `NC(=O)C(CNC(=O)C(CNC(=O)c1cc(O)c(O)c(O)c1)NC(=O)c1cc(O)c(O)c(O)c1)NC(=O)CCCCCNC(=O)C(CNC(=O)c1cc(O)c(O)c(O)c1)NC(=O)c1cc(O)c(O)c(O)c1` (stereo not drawn) [MSI 39 #4], in that order: 6 µg/mL (≈ 6.02 µM), 5 µM, 0.8 µg/mL (≈ 0.802 µM) and 0.7 µM.
Turning to `CC(=O)N[C@H](CCCCNC(=O)c1cc(O)c(O)c(O)c1)C(=O)N[C@H](CCCCNC(=O)c1cc(O)c(O)c(O)c1)C(=O)N[C@H](CCCCNC(=O)c1cc(O)c(O)c(O)c1)C(=O)N[C@H](CCCCNC(=O)c1cc(O)c(O)c(O)c1)C(N)=O` [MSI 39 #12] (Ac-[dK](Galloyl)[dK](Galloyl)[dK](Galloyl)[dK](Galloyl)-NH2), in experiment [1], the “IC 50 (ug/ml) 1st tier” value worked out at 8 µg/mL (≈ 6.78 µM) and the IC50 was 7 µM. For the same compound, in experiment [2], the “IC 50 (ug/ml) 2nd tier” value worked out at 3 µg/mL (≈ 2.54 µM) and the IC50 is 2 µM.
As to `COC(=O)c1cc(O)c(O)c(O)c1` [Methyl 3,5,4-trihydroxybenzoate, reference compound], the figures for the “Avg % Inhibtion” value in experiment [1] (62.5 μg/ml) and in experiment [1] (250 μg/ml) were 1% and 4.5%, respectively. Moreover, the “Avg % Inhibition” value is recorded as −11% in experiment [2] (62.5 μg/ml) and −8% in experiment [2] (250 μg/ml).
